Test: xn = mol fraction of the nth substance listed
Details: Liquid, Vibrating tube method

CCCCCCCCCCCCCCCC [hexadecane] + CCCCCCCCCC
mass density [kg/m3]
Details	1000 kPa	2000 kPa	3000 kPa	4000 kPa	5000 kPa	6000 kPa	7000 kPa	8000 kPa	9000 kPa	10000 kPa
295 K, x2 = 0.25	760.6	761.3	762	762.6	763.3	764	764.6	765.3	765.9	766.6
295 K, x2 = 0.75	739.6	740.4	741.1	741.8	742.5	743.3	744	744.7	745.4	746.2
295.3 K, x2 = 0.5	751	751.7	752.4	753.1	753.8	754.5	755.1	755.8	756.5	757.2

Source: the NIST ThermoML archive (doi:10.1021/je300482b)
